The values that follow come from patent US20050266105A1, “Compositions comprising natural agents for the treatment of HIV-associated opportunistic infections and complications and methods for preparing and using compositions comprising natural agents” (priority 2004, published 2005).

One data set deals with MRSA. The note with it: cited from earlier work.
The test system of the next data set is CEM-SS cells. Description: Compound cytotoxicity (cell viability in the absence of virus, MTS). The settings on record: read-out: TC50 (the source's name). The format is cell-based. As for the experimental part:
Similarly, compound cytotoxicity is measured as the % reduction in cell viability resulting from incubation of the compound with the cells (in the absence of virus). The greater the reduction in cell viability, the greater the cytotoxicity of the compound. […] Macroscopic observation of the cells in each well of the microtiter plate confirmed the cytotoxicity results obtained following staining of the cells with the MTS metabolic dye.

The next data set concerns HIV-1RF. The experiment in a line: HIV-1 cytoprotection assay. Type of data set: cell-based. The method, then:
ICBG plant samples were tested using an HIV-1 cytoprotection assay. This assay is based on the premise that HIV-1RF is cytopathic and kills CEM-SS cells as it replicates in the culture. Compounds that inhibit HIV-1 replication are therefore able to reduce the amount of viral cytopathic effect that occurs in the culture. As a result, compound activity is measured by determining the amount of cell viability remaining in the cultures following the six day incubation period. The % reduction in viral cytopathic effect is a direct measure of compound activity. The greater the % reduction in viral cytopathic effect, the greater the antiviral activity of the compound. […] Macroscopic observation of the cells in each well of the microtiter plate confirmed the cytotoxicity results obtained following staining of the cells with the MTS metabolic dye.

pIC50: −log10 of the molar value. In brackets after ≈: the same amount, converted by molar mass. Like-named read-outs stand apart in the source and are kept apart here. Bounds are passed on as bounds.

In general, MIC refers to the lowest concentration found to suppress growth. In the case of `CC[C@H]1OC(=O)[C@H](C)[C@@H](O[C@H]2C[C@@](C)(OC)[C@@H](O)[C@H](C)O2)[C@H](C)[C@@H](O[C@@H]2O[C@H](C)C[C@H](N(C)C)[C@H]2O)[C@](C)(O)C[C@@H](C)C(=O)[C@H](C)[C@@H](O)[C@]1(C)O` [Erythromycin], the MIC in the data set on MRSA (MRSA strain 1199-B) was 2 µg/mL (≈ 2.73 µM); with MRSA (MRSA strain XU212), 4096 µg/mL (≈ 5580 µM).
Regarding `CCn1cc(C(=O)O)c(=O)c2cc(F)c(N3CCNCC3)cc21` [Norfloxacin], the MIC in the data set with MRSA (MRSA strain 1199-B) was 64 µg/mL (≈ 200 µM); in the data set on MRSA (MRSA strain XU212), 8 µg/mL (≈ 25.1 µM).
By pIC50 is commonly meant −log10 of the IC50, conventionally taken in molar units. Lower therefore signals a large IC50. In the case of `Cc1cn([C@H]2C[C@H](N=[N+]=[N-])[C@@H](CO)O2)c(=O)[nH]c1=O` [AZT], in the data set with CEM-SS cells, the CC50 was greater than 500 nM. The “Antiviral activity (comments)” value in the data set with HIV-1RF (HIV-1RF in CEM-SS cells, at concentrations tested) is listed as “expected level of antiviral activity”. In addition, the pIC50 with HIV-1RF (HIV-1RF in CEM-SS cells, six day incubation) is greater than 8.70. For the same molecule, the “AI (Antiviral Index)” value in the data set on HIV-1RF (TC50 / IC50) is on record as greater than 320.
